Experimental data published in patent publication US12427134B2, “Methods of reducing the risk of cardiovascular events in a subject with atrial fibrillation and/or atrial flutter” (priority 2019, dated 2025).

System: hypertriglyceridemic patients with cardiovascular disease or at high risk for cardiovascular disease
Assay: REDUCE-IT: electrocardiograms, vital signs (blood pressure, pulse), weight and waist circumference
Assay type: in vivo, human
Details: Safety population
Protocol: Blood pressure was measured using a standardized process: • Patient sat for ≥5 minutes with feet flat on the floor and measurement arm supported so that the midpoint of the manometer cuff was at heart level; and • Used a mercury sphygmomanometer or automatic blood pressure device with an appropriately sized cuff with the bladder centered over the brachial artery.
Blood pressure was recorded to the nearest 2 mmHg mark on the manometer or to the nearest whole number on an automatic device. A blood pressure reading was repeated 1 to 2 minutes later, and the second reading recorded to the nearest 2 mmHg mark.
Height, Weight and Body Mass Index: Height and weight were measured. Measurement of weight was performed with the patient dressed in indoor clothing, with shoes removed, and bladder empty.
Waist Circumference: Waist circumference was measured with a tape measure, as follows: Start at the top of the hip bone then bring the tape measure all the way around—level with the navel. Make sure the tape measure is snug, but without compressing the skin, and that it is parallel with the floor. Patients should not have held their breath while measuring waist circumference.
12-Lead Electrocardiogram (ECG): ECGs (standard 12-lead) were obtained annually. Site personnel made every attempt to perform a patient's ECG using the same equipment at each visit. ECGs were reviewed by the site for the detection of silent MI. Silent MIs were sent for event adjudication. All post-randomization ECGs (protocol-specified and other) were sent to the CEC for evaluation of silent MI. The 12-lead ECG parameters included Heart Rate (bpm), PR Interval (msec), QRS Interval (msec), QT Interval (msec), and QTc Interval (msec) were measured, and Overall Interpretation and Silent MI (Yes/No) were summarized for all patients at Screening (Visit 1), Randomization visit (Visit 2; Day 0) and all other follow-up visits including the last visit of the study.
A treatment-emergent PCS high value at any time was defined as a change from a value less than or equal to the defined PCS value at baseline to a PCS high value at any post-baseline measurement. A treatment-emergent PCS low value at any time was defined as a change from a value greater than or equal to the lower PCS value at baseline to a PCS low value at any post-baseline measurement.
As an additional exploratory analysis, the relationship between post-baseline biomarker values and treatment effects with the primary and key secondary endpoints were assessed by adding biomarker values (for example, at 4 months, or at 1 year, etc.) as time-dependent covariates in the Cox proportional hazards model. Diagnostic plots for the proportional hazard's assumption was evaluated. Weight was measured at the screening visit and at all follow-up visits, including the last visit of the study. Waist circumference was measured at the randomization visit (Visit 2; Day 0), Visit 5 (Day 720) and the last visit of the study. Descriptive statistics were presented by visit and treatment group for baseline, post-treatment change from baseline, and the percent change from baseline. Analysis methods for repeated measurements were used to compare percent change from baseline between treatments.

CC/C=C\C/C=C\C/C=C\C/C=C\C/C=C\CCCC(=O)OCC [AMR101, eicosapentaenoic acid ethyl ester]
Diastolic Blood Pressure, mean baseline value (Baseline (Visit 2)): 78.1 mmHg | ECG Heart Rate, mean baseline value (Baseline (Visit 2)): 66.6 beats/minute | Heart Rate (vital sign), mean baseline value (Baseline (Visit 2)): 68.1 beats/minute | PR Interval, mean baseline value (Baseline (Visit 2)): 172.2 ms | QTc Interval, mean baseline value (Baseline (Visit 2)): 422.4 ms | Systolic Blood Pressure, mean baseline value (Baseline (Visit 2)): 132.6 mmHg | Diastolic Blood Pressure, mean change from baseline (Last Visit): −0.7 mmHg | ECG Heart Rate, mean change from baseline (Last Visit): 2.1 beats/minute | Heart Rate (vital sign), mean change from baseline (Last Visit): 1.7 beats/minute | PR Interval, mean change from baseline (Last Visit): 1.7 ms | QTc Interval, mean change from baseline (Last Visit): 5.0 ms | Systolic Blood Pressure, mean change from baseline (Last Visit): 0.9 mmHg | ECG TEAE - ECG signs of myocardial ischemia, % patients (N = 4089): (0.0) % | ECG TEAE - ECG signs of myocardial ischemia, n patients (N = 4089): 2 | ECG TEAE - Electrocardiogram PR prolongation, % patients (N = 4089): (0.0) % | ECG TEAE - Electrocardiogram PR prolongation, n patients (N = 4089): 0 | ECG TEAE - Electrocardiogram Q wave abnormal, % patients (N = 4089): (0.0) % | ECG TEAE - Electrocardiogram Q wave abnormal, n patients (N = 4089): 1 | ECG TEAE - Electrocardiogram QRS complex abnormal, % patients (N = 4089): (0.0) % | ECG TEAE - Electrocardiogram QRS complex abnormal, n patients (N = 4089): 2 | ECG TEAE - Electrocardiogram QT prolonged, % patients (N = 4089): (0.2) % | ECG TEAE - Electrocardiogram QT prolonged, n patients (N = 4089): 10 | ECG TEAE - Electrocardiogram ST segment abnormal, % patients (N = 4089): (0.1) % | ECG TEAE - Electrocardiogram ST segment abnormal, n patients (N = 4089): 6 | ECG TEAE - Electrocardiogram ST segment depression, % patients (N = 4089): (0.1) % | ECG TEAE - Electrocardiogram ST segment depression, n patients (N = 4089): 4 | ECG TEAE - Electrocardiogram ST-T change, % patients (N = 4089): (0.0) % | ECG TEAE - Electrocardiogram ST-T change, n patients (N = 4089): 1 | ECG TEAE - Electrocardiogram ST-T segment abnormal, % patients (N = 4089): (0.0) % | ECG TEAE - Electrocardiogram ST-T segment abnormal, n patients (N = 4089): 2 | ECG TEAE - Electrocardiogram T wave abnormal, % patients (N = 4089): (0.1) % | ECG TEAE - Electrocardiogram T wave abnormal, n patients (N = 4089): 6 | ECG TEAE - Electrocardiogram T wave amplitude decreased, % patients (N = 4089): (0.0) % | ECG TEAE - Electrocardiogram T wave amplitude decreased, n patients (N = 4089): 0 | ECG TEAE - Electrocardiogram T wave inversion, % patients (N = 4089): (0.2) % | ECG TEAE - Electrocardiogram T wave inversion, n patients (N = 4089): 7 | ECG TEAE - Electrocardiogram T wave normal, % patients (N = 4089): (0.0) % | ECG TEAE - Electrocardiogram T wave normal, n patients (N = 4089): 0 | ECG TEAE - Electrocardiogram abnormal, % patients (N = 4089): (0.2) % | ECG TEAE - Electrocardiogram abnormal, n patients (N = 4089): 10 | ECG TEAE - Electrocardiogram change, % patients (N = 4089): (0.1) % | ECG TEAE - Electrocardiogram change, n patients (N = 4089): 3 | ECG TEAE - Exercise electrocardiogram abnormal, % patients (N = 4089): (0.0) % | ECG TEAE - Exercise electrocardiogram abnormal, n patients (N = 4089): 1 | Diastolic Blood Pressure, mean change from baseline (Visit 3): 0.1 mmHg | Heart Rate (vital sign), mean change from baseline (Visit 3): 1.2 beats/minute | Systolic Blood Pressure, mean change from baseline (Visit 3): −0.5 mmHg | Diastolic Blood Pressure, mean change from baseline (Visit 4): −0.1 mmHg | ECG Heart Rate, mean change from baseline (Visit 4): 1.2 beats/minute | Heart Rate (vital sign), mean change from baseline (Visit 4): 0.9 beats/minute | PR Interval, mean change from baseline (Visit 4): -0.3 ms | QTc Interval, mean change from baseline (Visit 4): 1.8 ms | Systolic Blood Pressure, mean change from baseline (Visit 4): −0.2 mmHg | Diastolic Blood Pressure, mean change from baseline (Visit 5): −0.1 mmHg | ECG Heart Rate, mean change from baseline (Visit 5): 1.7 beats/minute | Heart Rate (vital sign), mean change from baseline (Visit 5): 1.3 beats/minute | PR Interval, mean change from baseline (Visit 5): 0.4 ms | QTc Interval, mean change from baseline (Visit 5): 2.8 ms | Systolic Blood Pressure, mean change from baseline (Visit 5): 0.5 mmHg | Diastolic Blood Pressure, mean change from baseline (Visit 6): −0.4 mmHg | ECG Heart Rate, mean change from baseline (Visit 6): 1.6 beats/minute | Heart Rate (vital sign), mean change from baseline (Visit 6): 1.4 beats/minute | PR Interval, mean change from baseline (Visit 6): 0.8 ms
